Measurements: patent US20140024132A1, “METHODS AND SYSTEMS USING INTEGRATED METABOLOMICS AND PHARMACOKINETICS FOR MULTI-COMPONENT DRUG EVALUATION” (priority 2010, published 2014)

Tests used:
[1] = system: human metabolite endpoints; test: Urinary metabolomic response during 6-week study (24 h, 2 week daily Pu-erh tea intake, 2 week wash-out) vs pre-dose, OPLS-DA and S-plot; type: in vivo; settings: 2 week of Pu-erh tea daily intake vs pre-dose, human urine
Protocol: (§1) Volunteers were provided with identical standard meals three times per day during the experiment (e.g., breakfast: milk and bread; lunch: beef and vegetables; dinner: pork and cabbage). […] Urine samples were stored at −80° C. before analysis.

[2] = system: endogenous urinary metabolite profiles; test: Altered endogenous urinary metabolites after a single Pu-erh tea intake, UPLC-QTOFMS and GC-TOFMS profiling; type: in vivo; settings: human urine
Protocol: (§2) Participants received a dose equivalent to 5 cups of commercially prepared tea. Twenty healthy men (n=10) and women (n=10) whose mean age was 25±2 years (range 22-32) were enrolled in this study, and written consent was obtained from each participant.
as §1
(§3) The tea infusion used in this study and the collected urine samples were centrifuged at 13,000 rpm for 10 min at 4° C., and the resulting supernatants were immediately stored at −80° C. pending UPLC-QTOFMS analysis. Ultrapure water (500 μL) was added to the tea or urine sample (500 μL) and vortexed for 1 min. The sample was then filtered through a syringe filter (0.22 μm) for UPLC-QTOFMS analysis.; incorporated by reference herein in its entirety.
(§4) The tea infusion (100 μL) described in Example 2 and urine samples (100 μL) were spiked with two internal standard solutions (10 μL-2-chlorophenylalanine in water, 0.3 mg/ml; 10 μL heptadecanoic acid in methanol, 1 mg/mL), and vortexed for 10 seconds. The mixed solution was extracted with 300 μL of methanol:chloroform (v/v 3:1) and vortexed for 30 seconds. After storing for 10 min at −20° C., the samples were centrifuged at 10,000 rpm for 10 min. An aliquot of the 300 μL supernatant was transferred to a glass sampling vial to vacuum dry at room temperature. The residue was derivatized using a two-step procedure. First, 80 μL methoxyamine (15 mg/mL in pyridine,) was added to the vial and kept at 30° C. for 90 min followed by 80 μL BSTFA (1% TMCS) at 70° C. for 60 min. See protocols set forth in Ni et al., FEBS Lett. 581: 707-711 (2007).; incorporated by reference herein in its entirety.
(§5) UPLC: Tea and urine metabolite profiling were performed using a Waters ACQUITY UPLC system equipped with a binary solvent delivery manager and a sample manager (Waters Corporation, Milford, Mass., USA), coupled to a Micromass Q-TOF Premier mass spectrometry equipped with an electrospray interface (Waters Corporation, Milford, M A, USA). Chromatographic separations were performed on a 2.1×100 mm 1.7 μm ACQUITY BEH C18 chromatography column. The column was maintained at 45° C. and eluted with a 1-99% acetonitrile (0.1% (v/v) formic acid)-aqueous formic acid (0.1% (v/v) formic acid) gradient over 10 min at a flow rate of 0.40 mL/min. A 5 μL aliquot sample was injected onto the column.
(§6) Mass Spectrometry: The mass accuracy analysis and detailed MS parameters were optimized according to our prior studies, which is incorporated herein in its entirety. During metabolite profiling experiments, centroid data was acquired for each sample from 50 to 1000 Da with a 0.10 sec scan time and a 0.01 sec interscan delay over a 10 min analysis time. A metabonomics MS System Test Mixture including acetaminophen, tolbutamide, 3′-azido-3′-deoxythymidine, reserpine, verapamil and coumarin was used as chromatographic reference and mass accuracy quality control. This test mixture was injected every ten injections. The mass spectrometer was operated in positive ion mode. The desolvation temperature was set to 400° C. at a flow rate of 700 L/hr and source temperature of 100° C. The capillary and cone voltages were set to 3500 and 45 V, respectively. The data was collected between 50-1000 m/z with alternating collision energy, at 5 eV for precursor ion information generation and a collision profile from 10-40 eV for fragment ion information. The Q-TOF Premier™ was operated in v mode with 10,000 mass resolving power. Data were centroided during acquisition using independent reference lock-mass ions via the LockSpray™ interface to ensure mass accuracy and reproducibility. Leucine-enkephalin was used as the reference compound at a concentration of 50 pg/μL and an infusion flow rate of 0.05 mL/min.

[3] = Urine levels of absorbed (bioavailable) Pu-erh tea components after a single Pu-erh tea intake, UPLC-QTOFMS and GC-TOFMS profiling; type: in vivo, human; settings: for FC (fold change): absorbed Pu-erh tea metabolite, human urine
Protocol: as §2, §1, §3, §4, §5, §6

[4] = Pearson correlation of absorbed, biotransformed plant metabolites and altered endogenous metabolites in urine; type: in vivo, human; settings: ρ≧0.7 or ρ≦−0.7, urine, FIG. 13
Protocol: Similarly, in order to study the relationship of dynamic response of metabolites along with the time course, mean value of each metabolite was calculated at each time point (0 h→1 h→2 h→3 h→6 h→12 h→24 h). A new metabolite vector with 7 mean values calculated at 7 different time points, representing the average response, was constructed and the Pearson correlation coefficients were calculated similarly with the pair-wise comparison of metabolites.

[5] = Urine levels of biotransformed Pu-erh tea metabolites (produced in vivo) after a single Pu-erh tea intake, UPLC-QTOFMS and GC-TOFMS profiling; parameters: species or system human
Protocol: Approximately 1 kg of 5-year-old Pu-erh tea was mixed to produce a homogeneous sample, and then ground into a fine powder and filtered through a 20 mesh screen. The Pu-erh tea was prepared by infusing 10 g powder in 200 mL boiling water for 10 min, followed by straining. Participants received a dose equivalent to 5 cups of commercially prepared tea. Twenty healthy men (n=10) and women (n=10) whose mean age was 25±2 years (range 22-32) were enrolled in this study, and written consent was obtained from each participant.
Volunteers were provided with identical standard meals three times per day during the experiment (e.g., breakfast: milk and bread; lunch: beef and vegetables; dinner: pork and cabbage). Urine samples of 12 healthy men (n=6) and women (n=6) selected from the 20 participants were collected just before breakfast including the 200 mL Pu-erh tea and at 1 h, 3 h, 6 h, 9 h, 12 h, and 24 h thereafter. Spot urine samples of all 20 participants were collected daily between 11:00 and 11:30 a.m. during a 6-week period that included a 2-week baseline phase, a 2-week daily Pu-erh tea ingestion phase, and a 2-week post-dosing phase. […] Urine samples were stored at −80° C. before analysis.
as §3, §4, §5
Mass Spectrometry: The mass accuracy analysis and detailed MS parameters were optimized according to our prior studies, which is incorporated herein in its entirety. During metabolite profiling experiments, centroid data was acquired for each sample from 50 to 1000 Da with a 0.10 sec scan time and a 0.01 sec interscan delay over a 10 min analysis time. A metabonomics MS System Test Mixture including acetaminophen, tolbutamide, 3′-azido-3′-deoxythymidine, reserpine, verapamil and coumarin was used as chromatographic reference and mass accuracy quality control. This test mixture was injected every ten injections. The mass spectrometer was operated in positive ion mode. […]

[6] = 1 h after Pu-erh tea intake vs pre-dose
[7] = 3 h after Pu-erh tea intake vs pre-dose
[8] = 6 h after Pu-erh tea intake vs pre-dose
[9] = 9 h after Pu-erh tea intake vs pre-dose
[10] = 12 h after Pu-erh tea intake vs pre-dose
[11] = 24 h after Pu-erh tea intake vs pre-dose

Row | Compound | FC (fold change) ([3]; 9 h post-dose vs pre-dose) | FC (fold change) ([3]; 12 h post-dose vs pre-dose) | FC (fold change) ([3]; 24 h post-dose vs pre-dose) | FC (fold change) ([3]; 1 h post-dose vs pre-dose) | FC (fold change) ([3]; 3 h post-dose vs pre-dose) | FC (fold change) ([3]; 6 h post-dose vs pre-dose) | further results
1 | 3-chlorotyrosine-2-aminobenzoic acid | – | – | – | – | – | – | change of urinary excretion / concentration [1]: decreased
2 | Oc1ccc2[nH]c(O)cc2c1 [2,5-dihydroxy-1H-indole] | – | – | – | – | – | – | change of urinary excretion / concentration [1]: decreased
3 | COc1ccccc1O [2-Methoxyphenol] | – | – | – | – | – | – | FC (fold change) [2, 6]: 0.48; FC (fold change) [2, 7]: 0.31; FC (fold change) [2, 8]: 0.31; FC (fold change) [2, 9]: 0.41; FC (fold change) [2, 10]: 0.59; FC (fold change) [2, 11]: 0.61
4 | O=C(O)c1cc(O)cc(O)c1 [3,5-hydroxy benzoic acid] | 0.42 | 0.47 | 0.20 | – | – | – | –
5 | NCCCC(=O)O [4-Aminobutanoic acid] | 39.08 | 100.29 | 49.03 | 3.95 | 5.14 | 24.12 | FC (fold change) [2, 6]: 3.95; FC (fold change) [2, 7]: 5.14; FC (fold change) [2, 8]: 24.12; FC (fold change) [2, 9]: 39.08; FC (fold change) [2, 10]: 100.29; FC (fold change) [2, 11]: 49.03
6 | COc1cc(CC(=O)O)ccc1O [4-Hydroxy-3-methoxyphenylacetic acid] | – | – | – | – | – | – | FC (fold change) [2, 6]: 0.39; FC (fold change) [2, 7]: 0.11; FC (fold change) [2, 8]: 0.27; FC (fold change) [2, 9]: 0.55; FC (fold change) [2, 10]: 0.85; FC (fold change) [2, 11]: 1.12
7 | COc1ccc(CC(=O)O)cc1 [4-methoxyphenylacetic acid] | – | – | – | – | – | – | change of urinary excretion / concentration [1]: increased
8 | Cc1cnc(C)c(O)c1C=O [5-Deoxypyridoxal] | 2.35 | 0.91 | 0.81 | 2.56 | 3.69 | 3.68 | –
9 | N[C@@H](Cc1c[nH]c2ccc(O)cc12)C(=O)O [5-hydroxytryptophan] | – | – | – | – | – | – | change of urinary excretion / concentration [1]: increased
10 | NC(C(=O)O)C(=O)O [Aminomalonic acid] | – | – | – | – | – | – | FC (fold change) [2, 6]: 1.90; FC (fold change) [2, 7]: 3.09; FC (fold change) [2, 8]: 3.09; FC (fold change) [2, 9]: 0.45; FC (fold change) [2, 10]: 0.57; FC (fold change) [2, 11]: 0.35
11 | Cn1c(=O)c2c(ncn2C)n(C)c1=O [Caffeine] | 277.02 | 160.06 | 46.28 | 454.37 | 573.74 | 437.21 | time at which concentration reached maximum levels in urine ([3]; absorbed plant metabolites, after oral administration of Pu-erh tea, FIG. 10A): 1 h; time at which cleared away from urine ([3]; absorbed plant metabolites, post-dose, FIG. 10A): 9 h; correlation with its biodegradated metabolites paraxanthine, theophylline, hippuric acid and 3-hydroxyphenylacetic acid [4]: positively corrected
12 | O=C(O)CC(O)(CC(=O)O)C(=O)O [Citric acid] | 1.20 | 1.42 | 1.17 | 1.42 | 1.76 | 1.59 | –
13 | CCN [Ethylamine] | – | – | – | – | – | – | FC (fold change) [5, 7]: 3.10; FC (fold change) [5, 8]: 3.87; FC (fold change) [5, 9]: 2.65; FC (fold change) [5, 10]: 3.09; FC (fold change) [5, 11]: 1.58; FC (fold change) ([5]; l h after Pu-erh tea intake vs pre-dose): 1.73
14 | NCC(=O)O [Glycine] | 1.53 | 1.77 | 1.04 | 1.28 | 1.67 | 2.32 | –
15 | O=C(O)c1cccnc1 [Nicotinic acid] | 63.95 | 49.02 | 27.31 | 14.31 | 62.95 | 78.98 | –
16 | Oc1ccccc1 [Phenol] | – | – | – | – | – | – | FC (fold change) [2, 6]: 1.04; FC (fold change) [2, 7]: 1.22; FC (fold change) [2, 8]: 1.43; FC (fold change) [2, 9]: 1.14; FC (fold change) [2, 10]: 1.32; FC (fold change) [2, 11]: 2.22
17 | O=C(O)CCC(=O)O [Succinate] | 0.57 | 0.84 | 0.93 | 1.15 | 0.90 | 0.74 | –
18 | Cn1cnc2c1c(=O)[nH]c(=O)n2C [Theobromine] | 5.42 | 4.43 | 2.67 | 4.04 | 6.76 | 7.75 | –
19 | Cn1c(=O)c2[nH]cnc2n(C)c1=O [Theophylline] | 45.99 | 38.67 | 19.22 | 11.62 | 42.69 | 54.55 | –
20 | CC(C)[C@H](N)C(=O)O [Valine] | – | – | – | – | – | – | FC (fold change) [2, 6]: 2.58; FC (fold change) [2, 7]: 1.25; FC (fold change) [2, 8]: 2.16; FC (fold change) [2, 9]: 2.32; FC (fold change) [2, 10]: 2.76; FC (fold change) [2, 11]: 1.38
21 | O[C@H]1[C@H](O)[C@@H](O)[C@H](O)[C@@H](O)[C@H]1O [inositol] | – | – | – | – | – | – | change of urinary excretion / concentration [1]: increased
